Where “and” joins values, the source holds several entries; their conditions need not be identical. Identical values can stand only once.
Tests used:
[1] = target: T1, Solute carrier organic anion transporter family member 1B3 (Homo sapiens, UniProt Q9NPD5); conditions: chinese hamster, cho, 10 µM
T1 sequence (Q9NPD5 whole entry): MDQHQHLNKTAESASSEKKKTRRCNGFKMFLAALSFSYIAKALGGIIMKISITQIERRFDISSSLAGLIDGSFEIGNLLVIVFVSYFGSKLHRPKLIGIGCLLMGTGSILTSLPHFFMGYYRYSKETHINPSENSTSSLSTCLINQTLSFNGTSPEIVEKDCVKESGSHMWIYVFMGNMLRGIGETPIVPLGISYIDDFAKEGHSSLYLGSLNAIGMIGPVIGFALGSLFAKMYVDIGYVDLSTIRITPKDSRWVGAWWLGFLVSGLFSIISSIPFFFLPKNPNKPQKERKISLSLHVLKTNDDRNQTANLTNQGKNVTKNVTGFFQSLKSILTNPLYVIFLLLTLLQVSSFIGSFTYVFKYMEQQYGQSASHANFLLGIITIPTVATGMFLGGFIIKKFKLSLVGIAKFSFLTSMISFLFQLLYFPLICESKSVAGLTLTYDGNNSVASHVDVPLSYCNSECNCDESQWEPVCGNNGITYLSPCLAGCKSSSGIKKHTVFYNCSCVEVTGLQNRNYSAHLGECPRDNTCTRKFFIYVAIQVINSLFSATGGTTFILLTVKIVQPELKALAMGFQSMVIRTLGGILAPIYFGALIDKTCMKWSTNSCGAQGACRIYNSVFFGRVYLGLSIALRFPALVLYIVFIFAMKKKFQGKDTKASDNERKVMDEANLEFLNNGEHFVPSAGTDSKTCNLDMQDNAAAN

[2] = target: T2, Solute carrier organic anion transporter family member 1B1 (Homo sapiens, UniProt Q9Y6L6); conditions: chinese hamster, cho, 10 µM
T2 sequence (Q9Y6L6 whole entry): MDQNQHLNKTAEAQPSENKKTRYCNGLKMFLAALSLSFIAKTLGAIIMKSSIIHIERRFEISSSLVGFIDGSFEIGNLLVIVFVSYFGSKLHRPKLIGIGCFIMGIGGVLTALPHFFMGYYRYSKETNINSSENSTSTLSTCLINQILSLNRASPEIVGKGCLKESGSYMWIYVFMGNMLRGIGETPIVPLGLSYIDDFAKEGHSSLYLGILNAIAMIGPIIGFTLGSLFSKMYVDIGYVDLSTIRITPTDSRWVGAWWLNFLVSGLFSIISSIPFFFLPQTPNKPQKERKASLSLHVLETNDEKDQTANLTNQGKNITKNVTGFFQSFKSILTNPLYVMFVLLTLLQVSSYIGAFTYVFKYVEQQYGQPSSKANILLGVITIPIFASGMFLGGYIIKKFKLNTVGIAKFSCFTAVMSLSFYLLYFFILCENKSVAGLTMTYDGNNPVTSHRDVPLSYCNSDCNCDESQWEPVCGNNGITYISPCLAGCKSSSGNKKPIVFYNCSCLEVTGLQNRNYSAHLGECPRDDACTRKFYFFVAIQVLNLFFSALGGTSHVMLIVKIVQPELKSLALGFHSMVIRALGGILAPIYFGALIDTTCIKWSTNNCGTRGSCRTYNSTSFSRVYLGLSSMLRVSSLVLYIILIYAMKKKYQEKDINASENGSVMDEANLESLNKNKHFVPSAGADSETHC

[3] = target: T2, Solute carrier organic anion transporter family member 1B1
[4] = target: T2, Solute carrier organic anion transporter family member 1B1; remark: listed apart in the source
[5] = target: T1, Solute carrier organic anion transporter family member 1B3
[6] = target: T1, Solute carrier organic anion transporter family member 1B3; remark: listed apart in the source

Structure (SMILES)	residual activity [1] [%]	residual activity [2]	IC50 [3] [nM]	Ki [4]	Ki [5]	IC50 [6] [nM]
CCCc1nc2c(C)cc(-c3nc4ccccc4n3C)cc2n1Cc1ccc(-c2ccccc2C(=O)O)cc1	41.88	77.57%	1860	1030 nM	960 nM	1260
C=C1[C@@H]2CC[C@@]3(C)[C@H](c4ccoc4)OC(=O)C[C@]13O[C@H]1C[C@H](O)C(C)(C)[C@H](CC(=O)OC)[C@]12C	17.5	16%		680 nM	3060 nM	
CC1(C)[C@@H](O)C=C[C@]2(C)[C@H]3CC[C@@]4(C)[C@H](c5ccoc5)OC(=O)[C@H]5O[C@]54[C@]3(C)C(=O)C[C@@H]12	22.22	10.83%	2400	1330 nM	3810 nM	5010
C[C@@H]1O[C@H](O[C@@H]2[C@@H](O)[C@H](O[C@@H]3[C@@H](O)[C@@H](O)[C@@H](O[C@H]4[C@@H](OC(=O)[C@]56CCC(C)(C)C[C@@H]5C5=CC[C@@H]7[C@@]8(C)CC[C@H](O[C@@H]9O[C@H](CO)[C@@H](O)[C@H](O)[C@H]9O)C(C)(C)[C@@H]8CC[C@@]7(C)[C@]5(C)C[C@H]6O)OC[C@@H](O)[C@@H]4O)O[C@H]3C)OC[C@H]2O)[C@H](O)[C@H](O)[C@H]1O	17.42	25.14%	3310	1820 nM	4020 nM	5250
C=C1[C@@H]2CC[C@@]3(C)[C@H](c4ccoc4)OC(=O)C[C@]13O[C@H]1C[C@H](OC(C)=O)C(C)(C)[C@H](CC(=O)OC)[C@]12C	21.87	13.98%	933	510 nM	3470 nM	4470
CC1(C)C(=O)CC[C@]2(C)[C@@H]1C[C@@H](O)[C@]1(C)C3=CC(=O)O[C@H](c4ccoc4)[C@@]3(C)CC[C@@H]21	48.28	54.82%	6310	3440 nM	2550 nM	3310
CC(=O)O[C@@H]1C[C@H]2C(C)(C)[C@@H](O)CC[C@]2(C)[C@H]2CC[C@]3(C)C(=CC(=O)O[C@H]3c3ccoc3)[C@@]21C	25.89	31.46%		930 nM and 1490 nM	2500 nM and 2390 nM	
CC1(C)C(=O)[C@@H]2O[C@@H]2[C@]2(C)[C@H]3CC[C@@]4(C)[C@H](c5ccoc5)OC(=O)[C@H]5O[C@]54[C@]3(C)[C@H](O)C[C@@H]12	21.3	12.73%	1580			2950
CC(=O)O[C@@H]1CC2C(C)(C)[C@H](O)C[C@H](O)[C@@]2(C)C2CC[C@]3(C)C(=CC(=O)O[C@@H]3c3ccoc3)[C@]21C (some centres undefined) [1,3-DIDEACETYLDEOXYKHIVORIN]	50.83	31.1%		2960 nM	6590 nM	
CC(=O)O[C@H]1CC[C@]2(C)C(C[C@@H](OC(C)=O)[C@]3(C)C4=CC(=O)O[C@H](c5ccoc5)[C@@]4(C)CCC23)C1(C)C (stereo partly drawn) [3-DEOXO-3beta-ACETOXYDEOXYDIHYDROGEDUNIN]	20.65	14.97%		410 nM	2670 nM	
CC(=O)O[C@H]1CC[C@]2(C)[C@H]3C(=O)C=C4[C@@H]5[C@@H](C)[C@H](C)CC[C@]5(C(=O)O)CC[C@@]4(C)[C@]3(C)CC[C@H]2C1(C)C [11-OXOURSOLIC ACID ACETATE]	5.189	19.79%	11200			11500
CCCCCC[C@H]1C(=O)O[C@H](C)[C@H](NC(=O)c2cccc(NC=O)c2O)C(=O)O[C@@H](C)[C@@H]1OC(=O)CC(C)C [ANTIMYCIN A]	28.62	31.93%		2200 nM	3820 nM	
CC[C@H]1OC(=O)[C@H](C)[C@@H](O[C@H]2C[C@@](C)(OC)[C@@H](O)[C@H](C)O2)[C@H](C)[C@@H](O[C@@H]2O[C@H](C)C[C@H](N(C)C)[C@H]2O)[C@](C)(OC)C[C@@H](C)C(=O)[C@H](C)[C@@H](O)[C@]1(C)O [CLARITHROMYCIN]	80.47	56.72%	3090			3310
Cc1ccc(C)c(OCCCC(C)(C)C(=O)O)c1 [GEMFIBROZIL]	71.16	56.21%	4070			7080
N[C@@H](C(=O)O)[C@@H](O)[C@H](O)[C@H](O)CO [GLUCOSAMINIC ACID]	25.61	63.53%	11700			
Cc1cc2c(C(C)C)c(O)c(O)c(C=O)c2c(O)c1-c1c(C)cc2c(C(C)C)c(O)c(O)c(C=O)c2c1O [GOSSYPOL]		24.45% and 68.48%	3240	1780 nM	3470 nM	4570
CCCCCN(CCCCC)C(=O)C(CCC(=O)[O-])NC(=O)c1ccc(Cl)c(Cl)c1.[Na+] (centres undefined) [LORGLUMIDE SODIUM]	32.85	16.54%		2010 nM	2710 nM	
CC[C@H]1/C=C/C=C/C[C@@H](C)[C@H](O)[C@@](C)(O)C(=O)[C@@H](C)[C@H](O)[C@@H](C)C(=O)[C@@H](C)[C@H](O)[C@@H](C)/C=C/C(=O)O[C@@H]2[C@H](C)[C@H](CC1)O[C@]1(CC[C@H](C)[C@H](C[C@@H](C)O)O1)[C@H]2C [OLIGOMYCIN]	3.002	11.28%		250 nM	440 nM	
CC[C@@H](C(=O)[C@@H](C)[C@@H](O)[C@H](C)[C@@H]1O[C@@H]([C@@H](CC)C(=O)[O-])CC[C@@H]1C)[C@H]1O[C@]2(C=C[C@@H](O)[C@]3(CC[C@@](C)([C@H]4CC[C@](O)(CC)[C@H](C)O4)O3)O2)[C@H](C)C[C@@H]1C.[Na+] [SALINOMYCIN SODIUM]	16.99	21.72%		2030 nM	3310 nM	
CC[C@H]1OC(=O)[C@H](C)C(=O)[C@H](C)[C@@H](O[C@@H]2O[C@H](C)C[C@H](N(C)C)[C@H]2O)[C@](C)(OC)C[C@@H](C)C(=O)[C@H](C)[C@H]2N(CCCCn3cnc(-c4cccnc4)c3)C(=O)O[C@]12C [TELITHROMYCIN]	60.1	62.01%	3470			5890
CC(=O)O[C@@H]1C[C@H]2C(C)(C)[C@@H](O)CC[C@]2(C)[C@H]2CC[C@@]3(C)[C@H](c4ccoc4)OC(=O)[C@H]4O[C@]43[C@@]21C [beta-DIHYDROGEDUNOL]	23.84	20.54%	1700			3240
COc1cc2c(cc1OC)C1C(=O)c3c(cc4c(c3O)C=CC(C)(C)O4)OC1CO2 (stereo not drawn) [beta-TOXICAROL]	70.52	67.84%				
N=C(N)NCCC[C@@H](NC(=O)[C@@H](N)Cc1ccc(O)cc1)C(=O)O [d[-Arg-2]KYOTORPHAN ACETATE]	98.23	114.8%				
Cc1ccc(O)cc1 [p-CRESOL]	101.1	115%				
O=C/C=C/c1ccc(O)cc1 [p-HYDROXYCINNAMALDEHYDE]	70.79	139.6%				
NC/C=C/C(=O)O [t-4-AMINOCROTONIC ACID (TACA)]	94.21	119.6%				

— ChEMBL document CHEMBL3039007, “Structure-based identification of OATP1B1/3 inhibitors” (Mol Pharmacol, 2013)
